What was measured:
[1] = system: Rattus norvegicus; assay: In vivo activity was determined by rat pouch assay at concentration of 2 mg/kg; type: functional
[2] = target: Prostaglandin G/H synthase 1 (Homo sapiens, UniProt P23219)
Description: Inhibition of human Prostaglandin G/H synthase 1

[3] = target: T1, Prostaglandin G/H synthase 2 (Homo sapiens, UniProt P35354); assay: In vitro inhibitory activity against human Prostaglandin G/H synthase 2 (COX-2)
T1 sequence (P35354 whole entry): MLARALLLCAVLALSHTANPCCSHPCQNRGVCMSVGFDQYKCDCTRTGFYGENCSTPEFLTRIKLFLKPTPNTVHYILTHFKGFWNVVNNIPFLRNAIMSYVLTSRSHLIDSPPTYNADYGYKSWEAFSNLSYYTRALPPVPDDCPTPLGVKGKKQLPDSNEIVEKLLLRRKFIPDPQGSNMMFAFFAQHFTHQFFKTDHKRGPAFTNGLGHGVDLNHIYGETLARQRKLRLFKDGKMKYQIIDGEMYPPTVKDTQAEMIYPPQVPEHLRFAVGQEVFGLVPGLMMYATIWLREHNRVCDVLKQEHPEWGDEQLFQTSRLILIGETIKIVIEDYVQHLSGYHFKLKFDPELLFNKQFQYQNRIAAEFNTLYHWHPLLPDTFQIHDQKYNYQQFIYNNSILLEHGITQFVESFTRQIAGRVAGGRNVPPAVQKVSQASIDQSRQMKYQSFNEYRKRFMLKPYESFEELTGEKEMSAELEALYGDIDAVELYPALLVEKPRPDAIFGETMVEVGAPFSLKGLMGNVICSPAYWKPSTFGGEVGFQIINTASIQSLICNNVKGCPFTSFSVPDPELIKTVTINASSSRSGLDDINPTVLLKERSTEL

Prostaglandin G/H synthase 1, sequence (P23219 whole entry): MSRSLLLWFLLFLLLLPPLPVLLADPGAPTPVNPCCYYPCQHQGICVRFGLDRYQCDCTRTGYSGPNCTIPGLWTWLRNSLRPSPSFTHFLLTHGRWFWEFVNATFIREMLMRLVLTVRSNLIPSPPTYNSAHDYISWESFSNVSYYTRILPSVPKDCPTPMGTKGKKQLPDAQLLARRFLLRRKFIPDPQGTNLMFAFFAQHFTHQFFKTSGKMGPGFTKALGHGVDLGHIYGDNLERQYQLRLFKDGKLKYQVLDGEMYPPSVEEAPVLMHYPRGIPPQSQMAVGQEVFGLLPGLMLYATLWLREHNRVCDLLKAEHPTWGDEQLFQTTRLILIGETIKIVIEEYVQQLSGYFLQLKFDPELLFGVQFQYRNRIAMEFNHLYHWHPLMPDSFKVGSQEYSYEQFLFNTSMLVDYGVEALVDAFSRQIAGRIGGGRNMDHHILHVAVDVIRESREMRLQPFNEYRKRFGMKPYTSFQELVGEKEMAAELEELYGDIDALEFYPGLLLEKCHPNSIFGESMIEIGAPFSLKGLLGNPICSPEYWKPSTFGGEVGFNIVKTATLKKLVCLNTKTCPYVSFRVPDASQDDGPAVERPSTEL

| IC50 [2] [µM] | IC50 [3] [nM] | SMILES | inhibition in vivo at 2 mg/kg [1] [%] |
| --- | --- | --- | --- |
| 0.08 | 13 | NS(=O)(=O)c1ccc(-c2sc(-c3ccccc3Cl)nc2-c2ccc(F)cc2)cc1 | 50 |
| 4.18 | 28 | COc1ccc(-c2nc(C)sc2-c2ccc(S(N)(=O)=O)cc2)cc1F | – |
| 35.6 | 18 | Cc1nc(-c2ccc(S(N)(=O)=O)cc2)c(-c2ccc(Cl)cc2)s1 | 30 |
| 72.5 | 29 | Cc1nc(-c2ccc(S(N)(=O)=O)cc2)c(-c2ccccc2)s1 | 7 |
| 0.12 | – | NS(=O)(=O)c1ccc(-c2sc(COc3cc(Cl)cc(Cl)c3)nc2-c2ccc(F)cc2)cc1 | – |
| 34 | 38 | Cc1nc(-c2ccccc2)c(-c2ccc(S(N)(=O)=O)cc2)s1 | 59 |
| > 100 | 2480 | COc1ccc(-c2nc(-c3ccccc3Cl)sc2-c2ccc(S(N)(=O)=O)cc2)cc1F | 33 |
| 115 | 24 | Cc1nc(-c2ccc(S(N)(=O)=O)cc2)c(-c2ccc(Br)cc2)s1 | – |

| SMILES | IC50 [2] [µM] | IC50 [3] [nM] | inhibition in vivo at 2 mg/kg [1] [%] |
| --- | --- | --- | --- |
| Cc1nc(-c2ccc(Cl)cc2)c(-c2ccc(S(N)(=O)=O)cc2)s1 | 1.84 | 5 | 42 |
| COc1ccc(-c2nc(NCc3ccccc3)sc2-c2ccc(S(N)(=O)=O)cc2)cc1F | 0.01 | 59 | – |

— ChEMBL document CHEMBL1131679, “Synthesis and activity of sulfonamide-substituted 4,5-diaryl thiazoles as selective cyclooxygenase-2 inhibitors” (Bioorg Med Chem Lett, 1999)
